Measurements: patent US5589510A, “Method for inhibiting retroviral infection by administering a naphthalenesulfonic acid compound” (priority 1995, dated 1996)
Values joined by “and” are separate entries in the source; they are usually repeats but may differ in a detail not shown here. Equal values may be shown once. Read-outs that look alike come from different tables or passages of the source.

What was measured:
[1] = tested on: TA98, TA1535, TA1537, TA1538, TA100 and W2P2uvr; experiment: Ames Test (in the presence of S9); format: cell-based, Salmonella typhimurium
Excerpt: Six Salmonella typhimuriumstrai strains, TA98, TA1535, TA1537, TA1538, TA100 and W2P2uvr were used in this experiment.

LD50, intravenous, mice = format: in vivo; conditions: mouse, in vivo, female mice, mortalities within 1 week
Procedure: The test material was administered intravenously to 5 female mice in five increasing doses. Mortalities were recorded within 1 week, and the LD50 was determined with the aid of statistical calculations.

standard Ames Test = conditions: literature (K-T. Chung et al); cited from earlier work
[2] = biological target: T1, recombinant reverse transcriptase (RT) (Human immunodeficiency virus type 1 group M subtype B, UniProt P04585); experiment: Reverse transcriptase inhibition assay; format: biochemical, HIV-1
T1 construct: purchased Worthington Biochemical Corporation
Procedure: Inhibition of recombinant reverse transcriptase (RT) was performed by using commercially available Boehringer Mannheim RT assay kit (Cat. No. 1468 120) based on incorporation of digoxigenin labeled dUTP into DNA. Recombinant enzyme from HIV-1 was purchased from Worthington Biochemical Corporation. The level of anti-RT activity in the sample was determined by measurement of absorbance using an ELISA reader at 405 nm.

HIV-1 RF [3] = experiment: Antiviral assay, Experimental Protocol I (compound added after infection); format: cell-based; conditions: Human immunodeficiency virus 1, 240 h, p24 ELISA, read-out: % Inhibition (after day 10); for inhibition at 0.6 µg/mL: 0.6 μg/ml; for inhibition at 1.25 µg/mL: 1.25 μg/ml; for inhibition at 2.5 µg/mL: 2.5 μg/ml; for inhibition at 5 µg/mL: 5 μg/ml
Procedure: HIV-1 infectivity studies were conducted in CEM, H9, MT2 cells and peripheral blood mononuclear cells (PBMC). CEM, H9 and MT2 were grown in RPMI1640 medium, 10% heat-inactivated fetal bovine serum (FBS). PBMCs were stimulated with 4 μg/ml PHA for 48 hours in RPMI1640, 10% FBS before HIV-1 infection. After HIV-1 infection, PBMCs were maintained in RPMI 1640, 10% FBS and 10 10 units/ml IL-2. The major HIV-1 isolates used were MN, IIIB, SF2, AZT-sensitive A018 and AZT-resistant A018 provided by NIH AIDS research and reference reagent program. Two major antiviral assays were developed to determine the antiviral activities of the compounds of this invention (as inhibitors).
I. The cells were infected with HIV-1 RF or IIIB at an infectivity multiplicity (moi) of 0.001 in the absence of a compound of this invention for one hour. HIV-1 infected cells were washed once with PBS, resuspended in RPMI1640, 10% FBS medium and distributed in 24-well culture dishes (5×10^5 cells per well) in the presence of a compound of this invention as inhibitor. […]

[4] = tested on: HIV-1 patient isolate NIH 900285; experiment: Inhibition of HIV-1 patient isolate NIH 900285 in PBMCs; format: cell-based; conditions: Human immunodeficiency virus 1, PBMC, 288 h, 10% FCS, read-out: % Inhibition (after day 12); for inhibition at 1 µg/mL: 1.0 μg/ml; for inhibition at 2.5 µg/mL: 2.5 μg/ml; for inhibition at 5 µg/mL: 5 μg/ml
Procedure: (§1) The inhibitory effects of additional naphthalenesulfonic acid compounds were tested as follows: Experimental Details:
(§2) PBMCs were activated for 48 hours in conditioned medium containing PHA at a concentration of 4 μg/ml. Thereafter 10^6 cells were plated in each of the 24 well plates containing 10% FCS or 50% FCS. The test compound, previously dissolved in a glucose solution (1 mg/ml), was then added to each of the wells to achieve the appropriate concentration. The plate was then incubated overnight (about 15 hours) after which 50 μl of cell-free HIV-1 patient isolate was added to each well. The plates were incubated for further 6 to 8 hours after which all free floating solution of virus was washed off. Washing was performed four times.
(§3) After removal of the virus, all cultures were resuspended in conditioned medium containing 10% FCS.
(§4) For control experiments virus growth was monitored in either 10% FCS or 50% FCS throughout the observation period (15 days).

HIV-1 RF strain = experiment: SCID mouse model (SCID-hu mice infected with HIV-1); format: in vivo
Procedure: Immunodeficient CB-17 SCID (severe combined immunodeficient) mice were reconstituted with human peripheral blood cells (Scid-hu). Two weeks after engraftment, the presence of human IgG indicating the presence of functional T and B cells was confirmed. Four weeks after engraftment, SCID-hu mice were infected with 10^6 tissue culture infectious doses/ml (TCID) of RF strain by ip injection.
Twenty-four hours after infection, 8 infected mice were treated daily with Compound 6 aqueous 5% glucose solution by ip injection at a dose of 50 mg/kg for only five days. The same dose of D-(+)-glucose was injected into SCID hu mice as a control. One month after final ip dose, peritoneal cells from the mice were cocultured with human lymphocytes. After four weeks, cultures were scored for the production of virus by assaying HIV-1 p24 levels in the supernatant. […] On the other hand, 5 of the 8 control mice had cultivated virus.

HIV-1 patient isolate IH = experiment: Inhibition of HIV-1 patient isolate IH in PBMCs; format: cell-based; conditions: Human immunodeficiency virus 1, PBMC, 288 h, read-out: % Inhibition (after day 12); for inhibition at 2.5 µg/mL: 2.5 μg/ml; for inhibition at 5 µg/mL: 5 μg/ml; for inhibition at 10 µg/mL: 10 μg/ml; for inhibition at 20 µg/mL: 20 μg/ml
Procedure: as §1
as §2, with “Thereafter 10^6 cells were plated in each of the 24 well plates containing 10% FCS or 50% FCS.” left out
as §3, §4

HIV-1 RF [5] = experiment: Antiviral assay, Experimental Protocol II (virus incubated with compound before cells); format: cell-based; conditions: Human immunodeficiency virus 1, 240 h, 10% FCS, p24 ELISA, read-out: % Inhibition (after day 10); for inhibition at 1.25 µg/mL: 1.25 μg/ml; for inhibition at 2.5 µg/mL: 2.5 μg/ml; for inhibition at 5 µg/mL: 5 μg/ml
reverse transcriptase = conditions: literature (Balzarini et al.); cited from earlier work

For `COc1cc(-c2ccc(/N=N/c3ccc4c(S(=O)(=O)O)cc(S(=O)(=O)O)c(N)c4c3O)c(OC)c2)ccc1/N=N/c1ccc2c(S(=O)(=O)O)cc(S(=O)(=O)O)c(N)c2c1O` [CSB, Chicago Sky Blue, reference compound], the “Ames Test result” value [1] was “Positive”, the “Ames Test, specific mutagenic activity” value ([1]; the higher the value, the higher the mutagenicity) was 10 colony no/μg and the LD50 at 168 h (LD50, intravenous, mice) was 100 mg/kg. For the same compound, the “mutagenic effects in Ames Test” value (standard Ames Test) was “strong mutagenic effects”, the “inhibitory effect against reverse transcriptase (in words)” value [2] was “inhibitory effect against reverse transcriptase” and the inhibition at 0.6 µg/mL (HIV-1 RF [3]; 10% FCS) was 37%. It also gave an inhibition at 1.25 µg/mL (HIV-1 RF [3]; 10% FCS) of 70% and an inhibition at 2.5 µg/mL (HIV-1 RF [3]; 10% FCS) of 90%.

With `COc1cc(N=Nc2c(S(=O)(=O)O)cc3cc(S(=O)(=O)O)cc(NC(=O)c4cccc(Cl)c4Cl)c3c2O)c(OC)cc1N=Nc1c(S(=O)(=O)O)cc2cc(S(=O)(=O)O)cc(NC(=O)c3ccc(Cl)cc3Cl)c2c1O` [Compound 6] the “Ames Test result” value [1] was “Negative”, the LD50 at 168 h (LD50, intravenous, mice) was 130 mg/kg and the inhibition at 1 µg/mL [4] was 0%. For the same compound, the inhibition at 2.5 µg/mL [4] was 95%, the inhibition at 5 µg/mL [4] was 99% and the “detectable HIV specific p24 in mice” value (HIV-1 RF strain; SCID-hu mice, 50 mg/kg ip daily for five days) was “none of the 8 mice receiving Compound 6 had any detectable HIV specific p24 above the background of the no virus control”. The “P24 Day 28” value (HIV-1 RF strain; SCID-hu mice, 50 mg/kg ip daily for five days, one value per mouse, coculture supernatant, 50 mg/kg) was 46.36 pg/mL and 35.44 pg/mL and 32.61 pg/mL and 40.90 pg/mL and 34.41 pg/mL and 34.36 pg/mL and 49.46 pg/mL and 58.02 pg/mL, the “prevention of infection of reconstituted human immune cells” value (HIV-1 RF strain; treatment for 5 days) was “sufficient to prevent infection of reconstituted human immune cells in an animal model” and the inhibition at 2.5 µg/mL (HIV-1 patient isolate IH; 10% FCS) was 0%. The inhibition at 5 µg/mL (HIV-1 patient isolate IH; 10% FCS) was 91%, the inhibition at 10 µg/mL (HIV-1 patient isolate IH; 10% FCS) was 82% and the inhibition at 20 µg/mL (HIV-1 patient isolate IH; 10% FCS) was 100%. For the same compound, the inhibition at 2.5 µg/mL (HIV-1 patient isolate IH; 50% Human Serum) was 13%, the inhibition at 5 µg/mL (HIV-1 patient isolate IH; 50% Human Serum) was 80% and the inhibition at 10 µg/mL (HIV-1 patient isolate IH; 50% Human Serum) was 90%. It also gave an inhibition at 20 µg/mL (HIV-1 patient isolate IH; 50% Human Serum) of 100%, an inhibition at 0.5 µM [2] of 32% and an inhibition at 5 µM ([2]; at 5.0 μM) of 80%. For the same compound, the inhibition at 0.3 µg/mL (HIV-1 RF [3]; 10% FCS, 0.3 μg/ml) was 99%, the inhibition at 0.6 µg/mL (HIV-1 RF [3]; 10% FCS) was 100% and the inhibition at 1.25 µg/mL (HIV-1 RF [3]; 10% FCS) was 100%. For the same compound, the inhibition at 2.5 µg/mL (HIV-1 RF [3]; 10% FCS) was 100%, the inhibition at 5 µg/mL (HIV-1 RF [3]; 10% FCS) was 100% and the inhibition at 0.6 µg/mL (HIV-1 RF [3]; 50% Human Serum) was 63%. The inhibition at 1.25 µg/mL (HIV-1 RF [3]; 50% Human Serum) was 64%, the inhibition at 2.5 µg/mL (HIV-1 RF [3]; 50% Human Serum) was 99% and the inhibition at 5 µg/mL (HIV-1 RF [3]; 50% Human Serum) was 100%.

For `CCC(C)(C)c1ccc(OCC(=O)Nc2cc(S(=O)(=O)O)cc3cc(S(=O)(=O)O)c(N=Nc4cc(OC)c(N=Nc5c(S(=O)(=O)O)cc6cc(S(=O)(=O)O)cc(NC(=O)c7ccc(Cl)cc7Cl)c6c5O)cc4OC)c(O)c23)c(C(C)(C)CC)c1` [Compound 15], the “Ames Test result” value [1] was “Negative”, the LD50 at 168 h (LD50, intravenous, mice) was 150 mg/kg and the inhibition at 1.25 µg/mL (HIV-1 RF [5]) was 61%. It also gave an inhibition at 2.5 µg/mL (HIV-1 RF [5]) of 89% and an inhibition at 5 µg/mL (HIV-1 RF [5]) of 100%.

In the case of `CCCCCCC(=O)Nc1cc(S(=O)(=O)O)cc2cc(S(=O)(=O)O)c(N=Nc3cc(OC)c(N=Nc4c(S(=O)(=O)O)cc5cc(S(=O)(=O)O)cc(NC(=O)Cc6ccccc6)c5c4O)cc3OC)c(O)c12` [Compound 17], the “Ames Test result” value [1] is reported as “Negative”, the LD50 at 168 h (LD50, intravenous, mice) is reported as 130 mg/kg and the inhibition at 1.25 µg/mL (HIV-1 RF [5]) is reported as 72%. The inhibition at 2.5 µg/mL (HIV-1 RF [5]) was 98% and the inhibition at 5 µg/mL (HIV-1 RF [5]) was 100%.

For `CCOc1cc(N=Nc2c(S(=O)(=O)O)cc3cc(S(=O)(=O)O)cc(NC(=O)c4cccc(Cl)c4Cl)c3c2O)c(OCC)cc1N=Nc1c(S(=O)(=O)O)cc2cc(S(=O)(=O)O)cc(NC(=O)c3ccc(Cl)cc3Cl)c2c1O` [Compound 28], the “Ames Test result” value [1] was “Negative”, the inhibition at 1 µg/mL [4] was 0% and the inhibition at 2.5 µg/mL [4] was 67%. It also gave an inhibition at 5 µg/mL [4] of 98%, an inhibition at 1.25 µg/mL (HIV-1 RF [3]; 10% FCS) of 100% and an inhibition at 2.5 µg/mL (HIV-1 RF [3]; 10% FCS) of 100%. For the same compound, the inhibition at 5 µg/mL (HIV-1 RF [3]; 10% FCS) was 100%.

For `Cc1cc(NC(=O)Nc2ccc(N=Nc3cc(S(=O)(=O)[O-])c4cccc(S(=O)(=O)[O-])c4c3)c(C)c2)ccc1N=Nc1cc(S(=O)(=O)[O-])c2cccc(S(=O)(=O)[O-])c2c1.[Na+].[Na+].[Na+].[Na+]` [Direct Yellow 50], the “inhibition of reverse transcriptase” value (reverse transcriptase) is listed as “inhibitors of reverse transcriptase”.

For `Cc1ccc(C(=O)Nc2ccc(S(=O)(=O)O)c3cc(S(=O)(=O)O)cc(S(=O)(=O)O)c23)cc1NC(=O)c1cccc(NC(=O)Nc2cccc(C(=O)Nc3cc(C(=O)Nc4ccc(S(=O)(=O)O)c5cc(S(=O)(=O)O)cc(S(=O)(=O)O)c45)ccc3C)c2)c1` [Suramin, reference compound], the LD50 at 168 h (LD50, intravenous, mice) is given as 40 mg/kg, the “inhibition of reverse transcriptase” value (reverse transcriptase) is given as “inhibitors of reverse transcriptase” and the “inhibitory effect against reverse transcriptase (in words)” value [2] is given as “inhibitory effect against reverse transcriptase”. For the same compound, the inhibition at 0.5 µM [2] was 68%, the inhibition at 1.25 µg/mL (HIV-1 RF [3]; 10% FCS) was 0% and the inhibition at 2.5 µg/mL (HIV-1 RF [3]; 10% FCS) was 0%. For the same compound, the inhibition at 5 µg/mL (HIV-1 RF [3]; 10% FCS) was 0%.
